Assay results: patent publication US20240199584A1, “KRAS INHIBITORS” (Bristol-Myers Squibb Company, priority 2022, published 2024)
Like-named read-outs stand apart in the source and are kept apart here.

Key:
KRAS A146T = molecular target: T1, KRAS A146T (Homo sapiens, UniProt P01116, A146T); assay: Cellular KRAS:RAF Disruption Assay (NanoBRET), KRAS A146T; format: cell-based; conditions: HEK293 T cells co-expressing RAF1 and KRAS A146T, 24 hours; read-out: RAS::RAF binding via NanoBRET IC50, KRAS A146T
T1 construct: expressed in transfected cells
Experimental: (§1) Cellular KRAS:RAF Disruption Assay
(§2) Stable cell lines (HEK293 T) were generated to co-express RAF1 and mutant or wild type KRAS, as indicated, using the BiBRET vector (Promega). Engineered cell lines were suspended in media (OptiMEM, […]), plated in 384-well plates (8000 cells/well), and allowed to rest for 1.5 hours. Cells were treated with compounds for 24 hours, and NanoBRET NanoGlo substrate (Promega) was added per the manufacturer's instructions.

KRAS G12V = molecular target: T2, KRAS G12V (Homo sapiens, UniProt P01116, G12V); assay: Cellular KRAS:RAF Disruption Assay (NanoBRET), KRAS G12V; format: cell-based; conditions: HEK293 T cells co-expressing RAF1 and KRAS G12V, 24 hours; read-out: RAS::RAF binding via NanoBRET IC50, KRAS G12V
T2 construct: expressed in transfected cells
Experimental: as §1, §2

KRAS G12C = molecular target: T3, KRAS G12C (Homo sapiens, UniProt P01116, G12C); assay: Cellular KRAS:RAF Disruption Assay (NanoBRET), KRAS G12C; format: cell-based; conditions: HEK293 T cells co-expressing RAF1 and KRAS G12C, 24 hours; read-out: RAS::RAF binding via NanoBRET IC50, KRAS G12C
T3 construct: expressed in transfected cells
Experimental: as §1, §2

KRAS WT = molecular target: T4, KRAS WT (Homo sapiens, UniProt P01116); assay: Cellular KRAS:RAF Disruption Assay (NanoBRET), KRAS WT; format: cell-based; conditions: HEK293 T cells co-expressing RAF1 and wild type KRAS, 24 hours; read-out: RAS::RAF binding via NanoBRET IC50, KRAS WT
T4 construct: expressed in transfected cells
Experimental: as §1, §2

KRAS G13D = molecular target: T5, KRAS G13D (Homo sapiens, UniProt P01116, G13D); assay: Cellular KRAS:RAF Disruption Assay (NanoBRET), KRAS G13D; format: cell-based; conditions: HEK293 T cells co-expressing RAF1 and KRAS G13D, 24 hours; read-out: RAS::RAF binding via NanoBRET IC50, KRAS G13D
T5 construct: expressed in transfected cells
Experimental: as §1, §2

KRAS Q61H = molecular target: T6, KRAS Q61H (Homo sapiens, UniProt P01116, Q61H); assay: Cellular KRAS:RAF Disruption Assay (NanoBRET), KRAS Q61H; format: cell-based; conditions: HEK293 T cells co-expressing RAF1 and KRAS Q61H, 24 hours; read-out: RAS::RAF binding via NanoBRET IC50, KRAS Q61H
T6 construct: expressed in transfected cells
Experimental: as §1, §2

KRAS G12S = molecular target: T7, KRAS G12S (Homo sapiens, UniProt P01116, G12S); assay: Cellular KRAS:RAF Disruption Assay (NanoBRET), KRAS G12S; format: cell-based; conditions: HEK293 T cells co-expressing RAF1 and KRAS G12S, 24 hours; read-out: RAS::RAF binding via NanoBRET IC50, KRAS G12S
T7 construct: expressed in transfected cells
Experimental: as §1, §2

KRAS Q61R = molecular target: T8, KRAS Q61R (Homo sapiens, UniProt P01116, Q61R); assay: Cellular KRAS:RAF Disruption Assay (NanoBRET), KRAS Q61R; format: cell-based; conditions: HEK293 T cells co-expressing RAF1 and KRAS Q61R, 24 hours; read-out: RAS::RAF binding via NanoBRET IC50, KRAS Q61R
T8 construct: expressed in transfected cells
Experimental: as §1, §2

KRAS G12D [1] = molecular target: T9, KRAS G12D (Homo sapiens, UniProt P01116, G12D); assay: biochemical
Experimental: Recombinant GST-RAF1 RBD (Ras binding domain) (9 nM) was added, followed by the addition of SA-Tb (0.25 nM), and the reaction mixture was incubated for 3 hours. HTRF (Homogeneous Time-Resolved Fluorescence) signal was measured (PerkinElmer Envision), the signal ratio (λem 520/λem 495) was calculated, and IC50 values were calculated from the dose-response curve.

KRAS G12A = molecular target: T10, KRAS G12A (Homo sapiens, UniProt P01116, G12A); assay: Cellular KRAS:RAF Disruption Assay (NanoBRET), KRAS G12A; format: cell-based; conditions: HEK293 T cells co-expressing RAF1 and KRAS G12A, 24 hours; read-out: RAS::RAF binding via NanoBRET IC50, KRAS G12A
T10 construct: expressed in transfected cells
Experimental: as §1, §2

KRAS G12R = molecular target: T11, KRAS G12R (Homo sapiens, UniProt P01116, G12R); assay: Cellular KRAS:RAF Disruption Assay (NanoBRET), KRAS G12R; format: cell-based; conditions: HEK293 T cells co-expressing RAF1 and KRAS G12R, 24 hours; read-out: RAS::RAF binding via NanoBRET IC50, KRAS G12R
T11 construct: expressed in transfected cells
Experimental: as §1, §2

KRAS G12D [2] = molecular target: T9, KRAS G12D; assay: biochemical; remark: listed apart in the source
Experimental: BIODIPY-labeled GDP (BIODIPY: dipyrrometheneboron difluoride) (400 nM) and recombinant SOS (son of sevenless protein) (10 nM) were added, and the reaction was incubated for 30 minutes. HTRF signal was measured (PerkinElmer Envision), the signal ratio (λem 520/λem 495) was calculated, and IC50 values were calculated from the dose-response curve.

T9 sequence (P01116 1-188 isoform P01116-2 G12D): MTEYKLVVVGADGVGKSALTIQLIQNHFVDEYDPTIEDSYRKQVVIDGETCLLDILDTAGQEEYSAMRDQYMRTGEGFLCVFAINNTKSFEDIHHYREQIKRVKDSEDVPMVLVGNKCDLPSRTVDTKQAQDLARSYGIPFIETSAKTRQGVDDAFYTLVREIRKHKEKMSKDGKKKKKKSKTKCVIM
T6 sequence (P01116 1-188 isoform P01116-2 Q61H): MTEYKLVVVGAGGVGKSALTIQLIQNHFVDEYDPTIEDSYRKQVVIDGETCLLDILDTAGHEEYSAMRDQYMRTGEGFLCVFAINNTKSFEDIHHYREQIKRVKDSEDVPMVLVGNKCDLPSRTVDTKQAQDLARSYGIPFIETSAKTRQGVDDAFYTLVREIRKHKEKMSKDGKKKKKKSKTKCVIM
T5 sequence (P01116 1-188 isoform P01116-2 G13D): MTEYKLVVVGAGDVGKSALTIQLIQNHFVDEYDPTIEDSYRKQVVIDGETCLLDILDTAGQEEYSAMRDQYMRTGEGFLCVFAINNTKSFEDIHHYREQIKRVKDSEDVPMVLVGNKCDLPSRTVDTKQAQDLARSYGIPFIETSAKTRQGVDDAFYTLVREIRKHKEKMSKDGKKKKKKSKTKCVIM
T7 sequence (P01116 1-188 isoform P01116-2 G12S): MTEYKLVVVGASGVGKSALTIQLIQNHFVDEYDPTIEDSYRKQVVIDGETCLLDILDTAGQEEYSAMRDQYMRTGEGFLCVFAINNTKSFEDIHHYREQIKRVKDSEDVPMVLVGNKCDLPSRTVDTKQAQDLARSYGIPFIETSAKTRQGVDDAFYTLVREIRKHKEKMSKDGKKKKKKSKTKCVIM
T8 sequence (P01116 1-188 isoform P01116-2 Q61R): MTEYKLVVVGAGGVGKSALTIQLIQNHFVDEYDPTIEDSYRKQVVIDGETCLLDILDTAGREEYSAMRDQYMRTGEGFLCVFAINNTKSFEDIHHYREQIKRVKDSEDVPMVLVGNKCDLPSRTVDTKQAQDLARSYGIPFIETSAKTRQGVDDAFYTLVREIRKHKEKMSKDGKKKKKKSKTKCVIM
T11 sequence (P01116 1-188 isoform P01116-2 G12R): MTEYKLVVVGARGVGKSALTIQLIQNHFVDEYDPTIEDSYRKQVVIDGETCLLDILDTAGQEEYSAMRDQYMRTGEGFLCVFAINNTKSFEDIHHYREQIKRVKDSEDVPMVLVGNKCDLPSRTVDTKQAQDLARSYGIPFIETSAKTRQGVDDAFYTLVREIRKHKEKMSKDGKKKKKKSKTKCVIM
T10 sequence (P01116 1-188 isoform P01116-2 G12A): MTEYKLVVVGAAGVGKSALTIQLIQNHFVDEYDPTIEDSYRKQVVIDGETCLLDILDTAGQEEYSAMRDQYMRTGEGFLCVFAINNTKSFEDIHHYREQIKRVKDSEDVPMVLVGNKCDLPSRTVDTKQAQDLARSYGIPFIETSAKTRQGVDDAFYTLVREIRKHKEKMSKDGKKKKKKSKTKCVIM
T4 sequence (P01116 1-188 isoform P01116-2): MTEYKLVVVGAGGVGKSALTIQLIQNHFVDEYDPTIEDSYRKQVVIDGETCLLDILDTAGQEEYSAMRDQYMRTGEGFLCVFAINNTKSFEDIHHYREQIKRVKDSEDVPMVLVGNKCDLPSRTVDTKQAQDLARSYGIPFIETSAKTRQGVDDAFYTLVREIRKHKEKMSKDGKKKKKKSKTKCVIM
T1 sequence (P01116 1-188 isoform P01116-2 A146T): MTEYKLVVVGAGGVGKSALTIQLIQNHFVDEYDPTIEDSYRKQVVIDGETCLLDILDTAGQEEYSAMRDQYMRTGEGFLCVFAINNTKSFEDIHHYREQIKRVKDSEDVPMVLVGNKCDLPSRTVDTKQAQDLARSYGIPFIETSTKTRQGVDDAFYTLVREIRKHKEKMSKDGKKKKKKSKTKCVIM
T3 sequence (P01116 1-188 isoform P01116-2 G12C): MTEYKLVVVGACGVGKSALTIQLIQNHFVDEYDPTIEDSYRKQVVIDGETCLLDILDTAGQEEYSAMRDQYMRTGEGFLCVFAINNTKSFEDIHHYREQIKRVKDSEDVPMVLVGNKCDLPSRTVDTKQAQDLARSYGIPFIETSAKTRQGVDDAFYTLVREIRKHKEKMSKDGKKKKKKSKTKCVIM
T2 sequence (P01116 1-188 isoform P01116-2 G12V): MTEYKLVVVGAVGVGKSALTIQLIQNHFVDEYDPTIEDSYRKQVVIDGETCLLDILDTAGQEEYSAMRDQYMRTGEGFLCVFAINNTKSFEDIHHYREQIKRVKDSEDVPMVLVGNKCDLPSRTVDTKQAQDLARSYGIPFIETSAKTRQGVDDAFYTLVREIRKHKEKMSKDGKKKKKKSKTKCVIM

Compound | IC50 (KRAS A146T) | IC50 (KRAS G12V) | IC50 (KRAS G12C) | IC50 (KRAS WT) | IC50 (KRAS G13D) | IC50 (KRAS Q61H) | IC50 (KRAS G12S) | IC50 (KRAS Q61R) | IC50 (KRAS G12D [1]) | IC50 (KRAS G12A) | IC50 (KRAS G12R) | IC50 (KRAS G12D [2])
C#Cc1c(F)ccc2cc(O)cc(-c3ncc4c(N5CC6CCC(C5)N6C(=O)C5CC5)nc(OC[C@@]56CCCN5C[C@H](F)C6)nc4c3F)c12 [Example 6-2, 4-(2-{[(2R,7aS)-2-fluoro-hexahydro-1H-pyrrolizin-7a-yl]methoxy}-4-{8-cyclopropanecarbonyl-3,8-diazabicyclo[3.2.1]octan-3-yl}-8-fluoropyrido[4,3-d]pyrimidin-7-yl)-5-ethynyl-6-fluoronaphthalen-2-ol] | 179 nM | 405 nM | 117 nM | 69 nM | 72 nM | 234 nM | 109 nM | > 10000 nM | 900 nM | 29 nM | > 10000 nM | < 2 nM
C#Cc1c(F)ccc2cc(O)cc(-c3ccc4c(N5CC6CCC(C5)N6C(=O)C(F)(F)F)nc(OC[C@]56CCC[C@H]5N(C)CCC6)nc4c3F)c12 [Example 7-7, 1-[3-(2-{[(4aS,7aR)-1-methyl-octahydro-1H-cyclopenta[b]pyridin-4a-yl]methoxy}-7-(8-ethynyl-7-fluoro-3-hydroxynaphthalen-1-yl)-8-fluoroquinazolin-4-yl)-3,8-diazabicyclo[3.2.1]octan-8-yl]-2,2,2-trifluoroethan-1-one] | 577 nM | > 5000 nM | 346 nM | 242 nM | 407 nM | 504 nM | 422 nM | > 5000 nM | 7 nM | 226 nM | > 5000 nM | < 2 nM
